Reference: patent US10407445B2, “Hepatitis C virus inhibitors” (ENANTA PHARMACEUTICALS, INC., priority 2013, dated 2019)

Experiments:
Assay type in all cases: cell-based
[1] = system: HCV genotype 1a replicon, NS5A K24E; test: Transient replication assay, GT1a NS5A K24E; settings: Hepatitis C virus
[2] = system: HCV genotype 1a replicon, NS5A M28V Y93H; test: Transient replication assay, GT1a NS5A M28V Y93H; settings: Hepatitis C virus
GT1b-Con1 replicon = test: Stable replicon assay, comparison to daclatasvir, GT1b-Con1; settings: Hepatitis C virus; Replicon GT1b-Con1, NS5A genotype 1b
Method: Stable HCV replicon cell lines were grown in complete media (Dulbecco's modified Eagle medium [DMEM], 2 mM L-glutamine, 0.1 mM essential amino acids, 1 mM sodium pyruvate, 10% fetal bovine serum) with the addition 500 μg/ml […] (G418). Huh7-lunet cells were maintained in the same medium without the addition of G418. Cells were routinely passaged at a dilution of 1:5 two times per week. For stable replicon assays (GT1a-H77, GT1b-Con1, GT2a-JFH, GT2a-J6, GT2a-2b-MD2b, GT2a-2b-J8, GT2a-3a-S52, GT3a-552, GT4a-ED43, GT2a-5a-SA13, GT2a-6a-EUKH2, GT2a-6a-HK6a, and GT2a-7a-QC69), an 8-point 3-fold or half-log dilution series of compound was transferred into three replica 96-well plates containing 1×10^4 cells per well in phenol red-free complete media without G418. For the transient replication assay, Huh7-lunet cells in ice-cold phosphate buffered saline (PBS) were electroporated (Bio-Rad Gene pulser: 950 uF, 270V) with 10 μg purified in vitro transcribed HCV replicon RNA, followed by resuspension in phenol red-free complete media without G418 and plating (1×10^4 cells in 200 μL media/well) into three replica 96-well plates prior to compound addition (1 μl compound per well). For stable and transient replicon assays, luciferase activity of compound-treated cells was measured relative to DMSO-treated cells after 72 h incubation using RENILLA-GLO™ Luciferase Assay (Promega). […]

[3] = system: HCV genotype 1a replicon, NS5A Y93N; test: Transient replication assay, GT1a NS5A Y93N; settings: Hepatitis C virus
[4] = system: HCV genotype 1a replicon, NS5A K24R; test: Transient replication assay, GT1a NS5A K24R; settings: Hepatitis C virus
GT2a-2b-J8 replicon = test: Stable replicon assay, comparison to daclatasvir, GT2a-2b-J8; settings: Hepatitis C virus
Text: (§1) The plasmid pSG-hRlucNeo-JFH1 was generated from pSG-Neo-JFH1 (Kato et al. 2003, Gastroentrology 125:1808-1817). A fragment containing the JFH-1 5′ NTR-hRluc-Neo gene and two unique restriction sites (AgeI and PmeI) was synthesized (Integrated DNA Technologies, Coralville, Iowa). The resulting plasmid was digested with AgeI and PmeI and the excised fragment (5′NTR-hRluc-Neo) was ligated into pSG-Neo-JFH1 digested with the same enzymes to generate pSG-hRlucNeo-JFH1. To allow expression of heterologous NS5A sequences, an NS5A shuttle vector was generated from pSG-Neo-JFH1, in which the entire coding sequence of NS5A plus the first eight codons of NS5B were replaced with an AfeI restriction site. This was done by Infusion cloning (Clontech, Mountain View, Calif.) from two PCR products that were generated using pSG-Neo-JFH1 as a template and the following primer pairs: […]
(§2) Stable HCV replicon cell lines were grown in complete media (Dulbecco's modified Eagle medium [DMEM], 2 mM L-glutamine, 0.1 mM essential amino acids, 1 mM sodium pyruvate, 10% fetal bovine serum) with the addition 500 μg/ml […] (G418). […] For stable and transient replicon assays, luciferase activity of compound-treated cells was measured relative to DMSO-treated cells after 72 h incubation using RENILLA-GLO™ Luciferase Assay (Promega). […]

GT2a-2b-MD2b replicon = test: Stable replicon assay, comparison to daclatasvir, GT2a-2b-MD2b; settings: Hepatitis C virus
Text: as §1, §2

[5] = system: HCV genotype 1a replicon, NS5A M28V; test: Transient replication assay, GT1a NS5A M28V; settings: Hepatitis C virus
[6] = system: HCV genotype 1a replicon, NS5A Y93C; test: Transient replication assay, GT1a NS5A Y93C; settings: Hepatitis C virus
[7] = system: HCV genotype 1a replicon, NS5A Y93H; test: Transient replication assay, GT1a NS5A Y93H; settings: Hepatitis C virus

## COC(=O)N[C@H](C(=O)N1C[C@]2(CCCOC2)C[C@H]1c1ncc(-c2ccc(-c3ccc4c(ccc5nc([C@@H]6C[C@@H]7CCC[C@@H]7N6C(=O)[C@@H](NC(=O)OC)C(C)C)[nH]c54)c3)cc2)[nH]1)C(C)C [Compound 16]
[1]
  EC50: 0.0013 nM
[2]
  EC50: 15 nM
GT1b-Con1 replicon
  EC50: 0.008 nM
[3]
  EC50: 19 nM
[4]
  EC50: 0.0012 nM
GT2a-2b-J8 replicon
  EC50: 9.9 nM
GT2a-2b-MD2b replicon
  EC50: 21 nM
[5]
  EC50: 0.0015 nM
[6]
  EC50: 0.22 nM
[7]
  EC50: 10 nM

## COC(=O)N[C@H](C(=O)N1CCC[C@H]1c1nc(-c2ccc(-c3ccc(-c4c[nH]c([C@@H]5CCCN5C(=O)[C@@H](NC(=O)OC)C(C)C)n4)cc3)cc2)c[nH]1)C(C)C [Daclatasvir, reference compound]
[1]
  EC50: 0.0022 nM
[2]
  EC50: 17.5 nM
GT1b-Con1 replicon
  EC50: 0.02 nM
[3]
  EC50: 119 nM
[4]
  EC50: 0.011 nM
GT2a-2b-J8 replicon
  EC50: 20 nM
GT2a-2b-MD2b replicon
  EC50: 33 nM
[5]
  EC50: 0.0073 nM
[6]
  EC50: 3.2 nM
[7]
  EC50: 65 nM
